The values below come from patent publication EP0153845A2, “CRF analogs” (THE SALK INSTITUTE FOR BIOLOGICAL STUDIES, priority 1984, dated 1985).

Assay [1] has as its target T1, cultured rat pituitary cells (Rattus norvegicus, UniProt P35353).
T1 sequence (P35353 24-415): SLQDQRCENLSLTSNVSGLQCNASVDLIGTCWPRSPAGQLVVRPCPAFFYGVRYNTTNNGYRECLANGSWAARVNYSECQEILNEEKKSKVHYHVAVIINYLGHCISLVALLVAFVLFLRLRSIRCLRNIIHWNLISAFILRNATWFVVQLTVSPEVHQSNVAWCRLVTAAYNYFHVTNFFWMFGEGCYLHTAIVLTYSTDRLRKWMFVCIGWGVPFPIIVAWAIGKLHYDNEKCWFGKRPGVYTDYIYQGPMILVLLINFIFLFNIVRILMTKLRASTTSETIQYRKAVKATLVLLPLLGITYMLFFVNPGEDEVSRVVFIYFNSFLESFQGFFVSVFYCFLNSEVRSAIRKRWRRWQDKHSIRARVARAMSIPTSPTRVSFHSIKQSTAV
Put plainly: Block of ACTH and β-endorphin secretion by cultured rat pituitary cells by CRF antagonists (procedure of Example XLIII). The assay is classed as cell-based. The note with it: general procedure of Example XLIII. As to the method:
The effectiveness of synthetic CRF antagonists to block the secretion of ACTH and B-endorphin by cultured rat pituitary cells is measured using the procedure as generally set forth in Vale et al., Endocrinology, 91, 562 (1972). In vivo testing is carried out using the general procedure set forth in C. Rivier et al., Science, 218, 377 (1982).

The nature of assay [2]: Lowering of blood pressure, in vivo testing by the general procedure of Example III.
The target of assay [3] is T1, cultured rat pituitary cells. Put plainly: Stimulation of ACTH and β-endorphin secretion by cultured rat pituitary cells (general procedure of Example III). In kind it is cell-based. The note with it: general procedure of Example III. As to the method:
The synthetic peptide AHC and oCRF were examined for their effects on the secretion of ACTH and B-endorphin in vitro and was also in vivo. The potency of synthetic oCRF to stimulate the secretion of ACTH and β-endorphin by cultured rat pituitary cells was measured using the procedure as generally set forth in Endocrinology, 91, 562 (1972). […] In.vivo testing is carried out using the general procedure set forth in C. Rivier et al., Science, 218, 377 (1982).

Square brackets hold non-standard residues; d marks the D form. Ends that are not written are not given here. Peptide text beside a SMILES is read from it. hArg = N=C(N)NCCCC[C@H](N)C(=O)O; Nle = CCCC[C@H](N)C(=O)O; Orn = NCCC[C@H](N)C(=O)O

Consider `CCCC[C@H](NC(=O)[C@@H](NC(=O)[C@H](CCC(=O)O)NC(=O)[C@H](CC(C)C)NC(=O)[C@H](CC(C)C)NC(=O)[C@H](CCCCN)NC(=O)[C@H](CCCNC(=N)N)NC(=O)[C@H](CC(N)=O)NC(=O)[C@H](CO)NC(=O)[C@H](Cc1c[nH]cn1)NC(=O)[C@H](C)NC(=O)[C@H](CCC(N)=O)NC(=O)[C@H](CCC(N)=O)NC(=O)[C@H](C)NC(=O)[C@H](CC(C)C)NC(=O)[C@H](CCC(N)=O)NC(=O)[C@H](CCC(=O)O)NC(=O)[C@H](C)NC(=O)[C@H](CCCNC(=N)N)NC(=O)[C@H](C)NC(=O)[C@H](C)NC(=O)[C@H](CCC(=O)O)NC(=O)[C@H](CC(C)C)NC(=O)[C@@H](NC(=O)[C@H](CCC(=O)O)NC(=O)[C@H](CCCNC(=N)N)NC(=O)[C@H](CC(C)C)NC(=O)[C@H](CC(C)C)NC(=O)[C@H](Cc1c[nH]cn1)NC(=O)[C@H](Cc1ccccc1)NC(=O)[C@@H](NC(=O)[C@H](CC(C)C)NC(=O)[C@@H](N)CC(=O)O)[C@@H](C)O)C(C)C)[C@@H](C)CC)C(N)=O` [[Ala, Leu^38, Nle^41]-hCRF(9-41)] (H-DLTFHLLREVLEAARAEQLAQQAHSNRKLLEI[Nle]-NH2), for which the “secretion of ACTH and β-END-LI (antagonist test)” value in assay [1] is “inhibits”.
For the compound `CCCC[C@H](NC(=O)[C@@H](NC(=O)[C@@H](N)CC(C)C)[C@@H](C)O)C(=O)N[C@@H](Cc1c[nH]cn1)C(=O)N[C@@H](CC(C)C)C(=O)N[C@@H](CC(C)C)C(=O)N[C@@H](CCCNC(=N)N)C(=O)N[C@@H](CCC(=O)O)C(=O)N[C@H](C(=O)N[C@@H](CC(C)C)C(=O)N[C@@H](CCC(=O)O)C(=O)N[C@@H](CCSC)C(=O)N[C@@H](C)C(=O)N[C@@H](CCCNC(=N)N)C(=O)N[C@@H](C)C(=O)N[C@@H](CCC(=O)O)C(=O)N[C@@H](CCC(N)=O)C(=O)N[C@@H](CC(C)C)C(=O)N[C@@H](C)C(=O)N[C@@H](CCC(N)=O)C(=O)N[C@@H](CCC(N)=O)C(=O)N[C@@H](C)C(=O)N[C@@H](Cc1c[nH]cn1)C(=O)N[C@@H](CO)C(=O)N[C@@H](CC(N)=O)C(=O)N[C@@H](CCCNC(=N)N)C(=O)N[C@@H](CCCCN)C(=O)N[C@@H](CC(C)C)C(=O)N[C@@H](CCSC)C(=O)N[C@@H](CCC(=O)O)C(=O)N[C@H](C(=O)N[C@H](C(N)=O)[C@@H](C)CC)[C@@H](C)CC)C(C)C` [[N1e^12]-hCRF(10-41)] (H-LT[Nle]HLLREVLEMARAEQLAQQAHSNRKLMEII-NH2), in assay [1], the “secretion of ACTH and β-END-LI (antagonist test)” value was “inhibits”.
As for “H-SEEPPISLDLTFHLLREVLE[Nle]ARAEQLAQQAYLNRKLMEEI-NH2 [[Nle^21, Tyr^32, Leu^33, Glu^40]-rCRF]”, the “lowering of blood pressure” value in assay [2] is given as “very significant lowering of blood pressure to a greater extent than rCRF”. Also, the “secretion of ACTH and β-END-LI” value in assay [3] is recorded as “stimulates”.
“H-SEEPPISLDLTFHLLREVLE[Nle]A[hArg]AEQLAQQAHLNRKLMEE[Nle]-NH2”: the “lowering of blood pressure” value in assay [2] is recorded as “very significant lowering of blood pressure”. The “secretion of ACTH and β-END-LI” value in assay [3] is on record as “stimulates”.
On the same counts, the results for “H-SEEPPISLDLTLELLREMLEME[Orn]AEKEAEQAALNRLLLEEA-NH2” are “very significant lowering of blood pressure” and “stimulates”.
Take “H-SEEPPISLELTFHLLREVLE[Nle]ARAEQLAEQAHLNRKLMEII-NH2 [[Glu^9, Nle^21, Glu^29, Leu^33]-rCRF]”: the “lowering of blood pressure” value in assay [2] is “very significant lowering of blood pressure to a greater extent than rCRF”. Besides, the “secretion of ACTH and β-END-LI” value in assay [3] is reported as “stimulates”.
On the same counts, the results for “H-SEEPPIS[Nle]DLSFHLLREVLEMARAEQLAQQAHLNRKLMEEI-NH2 [[Nle^8, Ser^11, Leu^33, Glu^40]-rCRF]” are “very significant lowering of blood pressure” and “stimulates”.
On to “H-SQEPPISLDLTFALLREMLEMAKAEQEAEQAALNRLLLEEA-NH2 [[Ala^13]-AHC]”, for which, in assay [2], the “lowering of blood pressure” value is reported as “very significant lowering of blood pressure”. In addition, the “secretion of ACTH and β-END-LI” value in assay [3] was “stimulates”.
As for “H-SQEPPISLDLTFHLLREVLE[Nle]TKADQLAEQAHSNRKLLDIA-NH2 [[Nle^21,Glu^29]-oCRF]”, the “lowering of blood pressure” value in assay [2] was “very significant lowering of blood pressure”. Besides, the “secretion of ACTH and β-END-LI” value in assay [3] is given as “stimulates”.
On the same counts, the results for “H-SQEPPISLDLTFHLLRE[Nle]LE[Nle]AKAEQEAEQAALNRLLLEEA-NH2 [[Nle^18, ^21]-AHC]” are “very significant lowering of blood pressure” and “stimulates”.
For the compound “H-SQEPPISLDLTFHLLRE[Nle]LE[Nle]TKADQLRQQAHSNRKLLDIA-NH2 [[Nle^18,21,Arg^28]-oCRF]”, in assay [2], the “lowering of blood pressure” value is listed as “very significant lowering of blood pressure”. In assay [3], the “secretion of ACTH and β-END-LI” value was “stimulates”.
Regarding “H-SQEPPISLDLTLELLREMLEMAKAEQEAEQAALNRLYLEEA-NH2 [[Leu^12, G1u^13, Tyr^37]-AHC]”, the “lowering of blood pressure” value in assay [2] is “very significant lowering of blood pressure”. In addition, the “secretion of ACTH and β-END-LI” value in assay [3] is listed as “stimulates”.
On the same counts, the results for “H-SQEPPISLELTFHLLRE[Nle]LE[Nle]AKAEQEAEQAALNRLLLEEA-NH2 [[Glu^9, Nle^18' ^21]-AHC]” are “very significant lowering of blood pressure” and “stimulates”.
With “H-SQE[dP]PISLDLTFHLLRE[Nle]LE[Nle]AKAEQEAEQAALNRLLLEEA-NH2 [[D-Pro^4, Nle^18,21]-AHC]”, the “lowering of blood pressure” value in assay [2] is “very significant lowering of blood pressure”. Besides, the “secretion of ACTH and β-END-LI” value in assay [3] is recorded as “stimulates”.
On the same counts, the results for “H-SQ[dY][dP]PISLDLTFHLLRE[Nle]LE[Nle]AKAEQEAEQAALNRLLLEEA-NH2 [[D-Tyr^3, D-Pro^4, Nle^18, ^21]-AHC]” are “very significant lowering of blood pressure” and “stimulates”.
As for “H-YSEEPPISLDLTFHLLREVLEMARAEQLAEQAHSNRKLMEII-NH2 [[Tyr-Ser^1, Glu^29]-rCRF]”, the “lowering of blood pressure” value in assay [2] is recorded as “very significant lowering of blood pressure”. The “secretion of ACTH and β-END-LI” value in assay [3] is reported as “stimulates”.
The corresponding values for “SEEPPISLDLTFHLLREVLEMTRAEQLAEQAHSNRKLMEEI-NH2 [[Thr^22, Glu^29,40]-rCRF]” are “very significant lowering of blood pressure” and “stimulates”.
On to “SQEPPISLDLTFHLLREVLEMA[Orn]AEQLAEQAHSNRKLLEII-NH2 [[Gln^2, Orn^23, Glu^29, Leu^38]-rCRF]”, for which the “lowering of blood pressure” value in assay [2] is given as “very significant lowering of blood pressure”. In addition, in assay [3], the “secretion of ACTH and β-END-LI” value is “stimulates”.
